Laboratory results published in publication PMC2362650, “Phase I and pharmacokinetic study of the topoisomerase II catalytic inhibitor fostriecin” (British Journal of Cancer, 1999).
Where two headings read alike, the source gives them in different places.

Tests used:
[1] = parameters: method as in Clinical Brochure Fostriecin, 1991; settings: mouse; 5-day schedule; ref Clinical Brochure Fostriecin, 1991; cited from earlier work
[2] = Plasma and urine pharmacokinetics (HPLC-UV) in patients after 60-min IV infusion; type: in vivo, human; settings: human; for Cmax / AUC / MRT / half-life: plasma, intravenous, day 1 course 1; for Cmax: observed value; for MRT: read-out: MRT
Text: Fostriecin (CI-920) is a topoisomerase (topo) II catalytic activity inhibitor (Boritzki et al, 1988) (Figure 1). This novel class of topo II-targeting drugs is considered of potential value for treatment of patients with tumours resistant to classic topo II poisons, including anthracyclines and podophyllotoxins (Cummings and Smyth, 1993). The nuclear enzyme topo II is essential for the regulation of DNA conformation (reviewed in Osheroff et al, 1991). Central in its action is the formation of a complex with DNA. Stabilization of this complex by topo II poisons induces DNA damage and cell death (Froelich-Ammon and Osheroff, 1995). Decreased complex formation due to decreased topo II levels is considered to be an important mechanism of tumour-resistance to topo II poisons (Beck and Danks, 1991). The topo II catalytic inhibitor fostriecin is expected to have increased activity against tumour cells with low topo II levels and this was confirmed in in vitro studies (De Jong et al, 1991). […] Because of increased toxi- city of fostriecin in dogs compared to mice, a dose below one-third of the one-tenth mouse equivalent LD10, 2 mg m-2 day-1, was chosen as starting dose in humans (Clinical Brochure Fostriecin, 1991). […] We also performed an analysis of the human pharmacokinetics of fostriecin and ex vivo experiments to investigate if the plasma drug concentrations achieved were sufficient to inhibit a tenipo- side-resistant tumour cell line. The maximum tolerated dose (MTD) of fostriecin could not be established because drug supply was stopped prematurely. However, results of this study may provide a basis for continued clinical development of this agent. PATIENTS AND METHODS Patient selection, drug administration and evaluation Patient eligibility criteria were: histologically confirmed diagnosis of a solid tumour, no longer amenable to established forms of treatment; age 18-75 years; Eastern Cooperative Oncology Group (ECOG) performance status 2; life expectancy 12 weeks; no Phase I and pharmacokinetic study of the topoisomerase II catalytic inhibitor fostriecin RS de Jong1, NH Mulder1, DRA Uges2, DTh Sleijfer1, FJP Hoppener4, HJM Groen3, PHB Willemse1, WTA van der Graaf1 and EGE de Vries1 Departments of 1Medical Oncology, 2Pharmacy and Toxicology, and 3Pulmonary Diseases, University Hospital Groningen, The Netherlands; 4EORTC New Drug Development Office, Amsterdam, The Netherlands Summary We conducted a phase I and pharmacokinetic study of the topoisomerase II catalytic inhibitor fostriecin. Fostriecin was administered intravenously over 60 min on days 1-5 at 4-week intervals. Dose was escalated from 2 mg m-2 day-1 to 20 mg m-2 day-1 in 20 patients. Drug pharmacokinetics was analysed with high performance liquid chromatography with UV-detection. Plasma collected during drug administration was tested in vitro for growth inhibition of a teniposide-resistant small-cell lung cancer (SCLC) cell line. The predominant toxicities were elevated liver transaminases (maximum common toxicity criteria (CTC) grade 4) and serum creatinine (maximum CTC grade 2). […] Duration of elevated alanine-amino transferase (ALT) was dose-limiting in one patient at 20 mg m-2. Other frequent toxicities were grade 1-2 nausea/vomiting, fever and mild fatigue. […] A metabolite, most probably dephosphorylated fostriecin, was detected in plasma and urine. […] However, further escalation seems possible and is warranted to achieve potentially effective drug levels. Fostriecin has a short plasma half-life and longer duration of infusion should be considered. […]

[3] = 2 mg, patient no. 1, 2 mg m-2, one-compartment model
[4] = 2 mg, patient no. 3, 2 mg m-2, one-compartment model
[5] = 2 mg, patient no. 4, 2 mg m-2, one-compartment model
[6] = 4 mg, patient no. 5, 4 mg m-2, one-compartment model
[7] = 4 mg, patient no. 6, 4 mg m-2, one-compartment model
[8] = 4 mg, patient no. 7, 4 mg m-2, two-compartment model
[9] = 6.6 mg, patient no. 11, 6.6 mg m-2, two-compartment model
[10] = 6.6 mg, patient no. 12, 6.6 mg m-2, two-compartment model
[11] = 10 mg, patient no. 13, 10 mg m-2, two-compartment model
[12] = 10 mg, patient no. 15, 10 mg m-2, two-compartment model
[13] = 12.2 mg, patient no. 16, 12.2 mg m-2, two-compartment model

Compound: C[C@@](O)(/C=C/[C@H]1CC=CC(=O)O1)[C@@H](C[C@@H](O)\C=C/C=C\C=C\CO)OP(=O)(O)O [fostriecin]
- LD10 [1]: 120 mg m-2 day-1
- number of patients with fostriecin detectable in plasma more than 7 h after infusion ([2]; in vivo): one
- Cmax ([2]; 2 mg, patient no. 1, 2 mg m-2): 495 ng/mL
- AUC [2, 3]: 739 ng·h/mL
- MRT [2, 3]: 51.6 min
- half-life ([2]; 2 mg, patient no. 1, 2 mg m-2, one-compartment model, read-out: t1/2 (converted)): 36 min
- Cmax ([2]; 2 mg, patient no. 3, 2 mg m-2): 597 ng/mL
- AUC [2, 4]: 810 ng·h/mL
- MRT [2, 4]: 46.2 min
- half-life ([2]; 2 mg, patient no. 3, 2 mg m-2, one-compartment model, read-out: t1/2 (converted)): 32.4 min
- Cmax ([2]; 2 mg, patient no. 4, 2 mg m-2): 371 ng/mL
- AUC [2, 5]: 468 ng·h/mL
- MRT [2, 5]: 30.6 min
- half-life ([2]; 2 mg, patient no. 4, 2 mg m-2, one-compartment model, read-out: t1/2 (converted)): 21 min
- Cmax ([2]; 4 mg, patient no. 5, 4 mg m-2): 1160 ng/mL
- AUC [2, 6]: 1360 ng·h/mL
- MRT [2, 6]: 43.2 min
- half-life ([2]; 4 mg, patient no. 5, 4 mg m-2, one-compartment model, read-out: t1/2 (converted)): 30 min
- Cmax ([2]; 4 mg, patient no. 6, 4 mg m-2): 956 ng/mL
- AUC [2, 7]: 1170 ng·h/mL
- MRT [2, 7]: 40.2 min
- half-life ([2]; 4 mg, patient no. 6, 4 mg m-2, one-compartment model, read-out: t1/2 (converted)): 27.6 min
- Cmax ([2]; 4 mg, patient no. 7, 4 mg m-2): 940 ng/mL
- AUC [2, 8]: 1490 ng·h/mL
- MRT [2, 8]: 116 min
- half-life ([2]; 4 mg, patient no. 7, 4 mg m-2, two-compartment model, read-out: t1/2 (initial) (converted)): 15.6 min
- half-life ([2]; 4 mg, patient no. 7, 4 mg m-2, two-compartment model, read-out: t1/2 (terminal) (converted)): 122 min
- Cmax ([2]; 6.6 mg, patient no. 11, 6.6 mg m-2): 1400 ng/mL
- AUC [2, 9]: 1650 ng·h/mL
- MRT [2, 9]: 26.4 min
- half-life ([2]; 6.6 mg, patient no. 11, 6.6 mg m-2, two-compartment model, read-out: t1/2 (initial) (converted)): 5.4 min
- half-life ([2]; 6.6 mg, patient no. 11, 6.6 mg m-2, two-compartment model, read-out: t1/2 (terminal) (converted)): 28.2 min
- Cmax ([2]; 6.6 mg, patient no. 12, 6.6 mg m-2): 1860 ng/mL
- AUC [2, 10]: 2450 ng·h/mL
- MRT [2, 10]: 37.8 min
- half-life ([2]; 6.6 mg, patient no. 12, 6.6 mg m-2, two-compartment model, read-out: t1/2 (initial) (converted)): 15 min
- half-life ([2]; 6.6 mg, patient no. 12, 6.6 mg m-2, two-compartment model, read-out: t1/2 (terminal) (converted)): 73.2 min
- Cmax ([2]; 10 mg, patient no. 13, 10 mg m-2): 2240 ng/mL
- AUC [2, 11]: 3350 ng·h/mL
- MRT [2, 11]: 55.2 min
- half-life ([2]; 10 mg, patient no. 13, 10 mg m-2, two-compartment model, read-out: t1/2 (initial) (converted)): 100 min
- half-life ([2]; 10 mg, patient no. 13, 10 mg m-2, two-compartment model, read-out: t1/2 (terminal) (converted)): 55.8 min
- Cmax ([2]; 10 mg, patient no. 15, 10 mg m-2): 2450 ng/mL
- AUC [2, 12]: 3770 ng·h/mL
- MRT [2, 12]: 60.6 min
- half-life ([2]; 10 mg, patient no. 15, 10 mg m-2, two-compartment model, read-out: t1/2 (initial) (converted)): 18 min
- half-life ([2]; 10 mg, patient no. 15, 10 mg m-2, two-compartment model, read-out: t1/2 (terminal) (converted)): 83.4 min
- Cmax ([2]; 12.2 mg, patient no. 16, 12.2 mg m-2): 3200 ng/mL
- AUC [2, 13]: 4230 ng·h/mL
- MRT [2, 13]: 56.4 min
- half-life ([2]; 12.2 mg, patient no. 16, 12.2 mg m-2, two-compartment model, read-out: t1/2 (initial) (converted)): 13.2 min
